According to US20200325505A1, “FILAMENTOUS FUNGI CAPABLE OF PRODUCING VERY LONG CHAIN FATTY ACIDS” (UT-Battelle, LLC, priority 2019, published 2020):
Like-named read-outs stand apart in the source and are kept apart here. Residues, ends and D or L forms follow the SMILES beside them.

Tested on: Mortierella elongata AG77
Experiment: Carbon source utilisation in Biolog 96-well plates, formazan formation after tetrazolium addition
Format: cell-based
Conditions: for Metabolized: Metabolized = more formazan formation than a control containing no carbon source, observed visually at 2 h, 24 h, 148 h; for Carbon sources that Mortierella elongata AG77 can metabolize: summary of Table 3
Method: Two 300 mL volumes of growth medium comprising 1 g/L KH2PO4, 1 g/L MgSO4 7H2O, 0.1 g/L CaCl2, 0.02 g/L FeNaEDTA, 0.1 g/L NaCl, and either 1 g/L NH4NO3 or 20 g/L sucrose were prepared. Acidity was adjusted to 5.5 using NaOH and volumes of growth medium were autoclaved 30 min at 121° C. to sterilize. Aliquots of 200 μL of carbon-free medium or nitrogen-free medium were pipetted into each well of a set of 96-well plates previously prepared with lyophilized putative carbon or nitrogen sources (Biolog Inc., Hayward, Calif.). Inocula were prepared by perforating a culture of Mortierella elongata AG77 grown on 20 g/L potato dextrose agar with a 3 mm diameter cork borer and separating the surface mycelial mat from the solid growth medium using tweezers. Each well was inoculated with one inoculum. Cultures were incubated at 21° C. for 24 hours to allow metabolic changes to stabilize, and then 100 μL of 3 g/L tetrazolium chloride in water was added to each well. Formazan formation was observed visually at 2 h, 24 h, and 148 h.
Conclusions were based on rate and intensity of formazan formation using the 3-4,5-dimethylthiazol-2-yl)-2,5-diphenyltetrazolium bromide (MTT) assay. “Metabolized” indicates more formazan formation than a control containing no carbon source, and “Toxic” indicates less formazan formation than a control containing no carbon source. “Metabolized” and “Toxic” assignments are mutually exclusive. In this example, a compound may be “Metabolized” or “Toxic,” but not both.

[1] = compound as carbon source, Toxic = less formazan formation than a control containing no carbon source

In the case of C[C@H](O)C(=O)O [L-Lactic Acid], the Metabolized (compound as carbon source) is reported as “yes”, the Toxic [1] is reported as “no” and the “Carbon sources that Mortierella elongata AG77 can metabolize” value is reported as “can metabolize”.

For O=C[C@@H](O)[C@H](O[C@@H]1O[C@H](CO)[C@H](O)[C@H](O)[C@H]1O)[C@H](O)CO [3-0-β-D-Galacto-pyranosyl-D-Arabinose], the Metabolized (compound as carbon source) was “no” and the Toxic [1] was “no”.

With CCCC(=O)C(=O)O [α-Keto-Valeric Acid] the Metabolized (compound as carbon source) was “no” and the Toxic [1] was “no”.

CC(=O)C(=O)O [Pyruvic Acid] was tested, and the Metabolized (compound as carbon source) was “no” and the Toxic [1] was “no”.

With OC[C@H]1O[C@H](OC[C@H]2O[C@H](OC[C@H]3O[C@H](O[C@]4(CO)O[C@H](CO)[C@@H](O)[C@@H]4O)[C@H](O)[C@@H](O)[C@@H]3O)[C@H](O)[C@@H](O)[C@H]2O)[C@H](O)[C@@H](O)[C@H]1O [Stachyose] the Metabolized (compound as carbon source) was “no” and the Toxic [1] was “no”.

For Mannan, the Toxic was “no”.

In the case of O=C(O)[C@H](O)[C@@H](O)C(=O)O [L-Tartaric Acid], the Metabolized (compound as carbon source) is reported as “no”.

In the case of Tween 40, the Metabolized (compound as carbon source) is reported as “no” and the Toxic [1] is reported as “no”.

CC(=O)C(C)O (centres unmarked) [3-Hydroxy 2-Butanone] was tested, and the Metabolized (compound as carbon source) was “no” and the Toxic [1] was “no”.

In the case of O=C1O[C@H]([C@@H](O)CO)[C@@H](O)[C@@H]1O [L-Galactonic Acid-γ-Lactone], the Metabolized (compound as carbon source) is reported as “yes”, the Toxic [1] is reported as “no” and the “Carbon sources that Mortierella elongata AG77 can metabolize” value is reported as “can metabolize”.

For COC(=O)C(C)=O [Methyl Pyruvate], the Metabolized (compound as carbon source) was “yes”, the Toxic [1] was “no” and the “Carbon sources that Mortierella elongata AG77 can metabolize” value was “can metabolize”.

In the case of OC[C@H]1O[C@H](O)[C@H](O)[C@@H](O)[C@@H]1O [α-D-Glucose], the Toxic is reported as “no” and the Metabolized (compound as carbon source) is reported as “no”.

For COC1OC(CO)C(O)C(O)C1O [α-Methyl-D-Mannoside], the Metabolized (compound as carbon source) was “no” and the Toxic [1] was “no”.

In the case of CCC(=O)O [Propionic Acid], the Toxic is reported as “no” and the Metabolized (compound as carbon source) is reported as “no”.

For OC[C@H](O)C(O)[C@@H](O)CO [L-Arabitol], the Metabolized (compound as carbon source) was “no” and the Toxic [1] was “no”.

With C[C@@H](O)[C@H](O)[C@H](O)[C@@H](O)C=O [D-Fucose] the Metabolized (compound as carbon source) was “yes”, the Toxic [1] was “no” and the “Carbon sources that Mortierella elongata AG77 can metabolize” value was “can metabolize”.

With NC(=O)CCC(=O)O [Succinamic Acid] the Metabolized (compound as carbon source) was “no” and the Toxic [1] was “no”.

OC[C@@H](O)[C@@H](O)[C@H](O)[C@H](O)CO [D-Mannitol] was tested, and the Toxic was “no” and the Metabolized (compound as carbon source) was “no”.

In the case of OC[C@H]1O[C@@H]2O[C@H]3[C@H](O)[C@@H](O)[C@@H](O[C@H]4[C@H](O)[C@@H](O)[C@@H](O[C@H]5[C@H](O)[C@@H](O)[C@@H](O[C@H]6[C@H](O)[C@@H](O)[C@@H](O[C@H]7[C@H](O)[C@@H](O)[C@@H](O[C@H]8[C@H](O)[C@@H](O)[C@@H](O[C@H]1[C@H](O)[C@H]2O)O[C@@H]8CO)O[C@@H]7CO)O[C@@H]6CO)O[C@@H]5CO)O[C@@H]4CO)O[C@@H]3CO [β-Cyclodextrin], the Metabolized (compound as carbon source) is reported as “no” and the Toxic [1] is reported as “no”.

OC[C@H]1O[C@H](OC[C@H]2OC(O)(CO)[C@@H](O)[C@@H]2O)[C@H](O)[C@@H](O)[C@@H]1O (some centres unmarked) [Palatinose] was tested, and the Metabolized (compound as carbon source) was “yes”, the Toxic [1] was “no” and the “Carbon sources that Mortierella elongata AG77 can metabolize” value was “can metabolize”.

For CCC(O)C(=O)O (stereo not drawn) [α-Hydroxy Butyric Acid], the Metabolized (compound as carbon source) was “no” and the Toxic [1] was “no”.

With CCCCCCCCCC(=O)O [Capric Acid] the Toxic was “no” and the Metabolized (compound as carbon source) was “no”.

For Glycogen, the Toxic was “no”.

With O=C[C@@H](O)[C@H](O)[C@@H](O)[C@@H](O)CO [L-Glucose] the Toxic was “no” and the Metabolized (compound as carbon source) was “no”.

With O=C(O)C[C@@H](O)C(=O)O [D-Malic Acid] the Metabolized (compound as carbon source) was “no” and the Toxic [1] was “no”.

In the case of O=C(O)CO [Glycolic Acid], the Metabolized (compound as carbon source) is reported as “yes”, the Toxic [1] is reported as “no” and the “Carbon sources that Mortierella elongata AG77 can metabolize” value is reported as “can metabolize”.

For O=C(CO)[C@@H](O)[C@H](O)[C@@H](O)C(=O)O [5-Keto-D-Gluconic Acid], the Metabolized (compound as carbon source) was “no” and the Toxic [1] was “no”.

For OCC(O)CO [Glycerol], the Toxic was “no”, the Metabolized (compound as carbon source) was “yes” and the “Carbon sources that Mortierella elongata AG77 can metabolize” value was “can metabolize”.

With O=C(O)CC(O)(CC(=O)O)C(=O)O [Citric Acid] the Metabolized (compound as carbon source) was “yes” and the “Carbon sources that Mortierella elongata AG77 can metabolize” value was “can metabolize”.

In the case of Tween 80, the Metabolized (compound as carbon source) is reported as “yes”, the Toxic [1] is reported as “no” and the “Carbon sources that Mortierella elongata AG77 can metabolize” value is reported as “can metabolize”.

With O=C(CO)[C@@H](O)[C@H](O)[C@@H](O)CO [L-Sorbose] the Toxic was “no” and the Metabolized (compound as carbon source) was “no”.

O=C[C@H](O)[C@@H](O)[C@H](O)[C@H](O)COP(=O)(O)O [D-Glucose-6-Phosphate] was tested, and the Toxic was “no”, the Metabolized (compound as carbon source) was “yes” and the “Carbon sources that Mortierella elongata AG77 can metabolize” value was “can metabolize”.

With CO[C@H]1O[C@H](CO)[C@@H](O)[C@H](O)[C@H]1O [a-Methyl-D-Glucoside] the Metabolized (compound as carbon source) was “yes”, the Toxic [1] was “no” and the “Carbon sources that Mortierella elongata AG77 can metabolize” value was “can metabolize”.

In the case of O=C(O)C(=O)O [Oxalic Acid], the Metabolized (compound as carbon source) is reported as “no”.

CCCC(=O)O [Butyric Acid] was tested, and the Toxic was “no” and the Metabolized (compound as carbon source) was “no”.

In the case of O=C(O)CCCO [γ-Hydroxy Butyric Acid], the Metabolized (compound as carbon source) is reported as “no” and the Toxic [1] is reported as “no”.

OCc1ccccc1O[C@@H]1O[C@H](CO)[C@@H](O)[C@H](O)[C@H]1O [Salicin] was tested, and the Toxic was “no”, the Metabolized (compound as carbon source) was “yes” and the “Carbon sources that Mortierella elongata AG77 can metabolize” value was “can metabolize”.

With O[C@H]1[C@H](O)[C@@H](O)[C@H](O)[C@@H](O)[C@H]1O [m-Inositol] the Metabolized (compound as carbon source) was “yes”, the Toxic [1] was “no” and the “Carbon sources that Mortierella elongata AG77 can metabolize” value was “can metabolize”.

For O=P(O)(O)O[C@H]1O[C@H](CO)[C@@H](O)[C@H](O)[C@H]1O [D-Glucose-1-Phosphate], the Metabolized (compound as carbon source) was “yes” and the “Carbon sources that Mortierella elongata AG77 can metabolize” value was “can metabolize”.

For NCC(O)c1ccc(O)cc1 (racemic) [D,L-Octopamine], the Metabolized (compound as carbon source) was “no” and the Toxic [1] was “no”.

With C[C@H](O)[C@@H](O)[C@@H](O)[C@H](O)C=O [L-Fucose] the Metabolized (compound as carbon source) was “no” and the Toxic [1] was “no”.

In the case of O=C(O)c1ccc(O)cc1 [4-Hydroxy Benzoic Acid], the Toxic is reported as “no” and the Metabolized (compound as carbon source) is reported as “no”.

For NCC(=O)N1CCC[C@H]1C(=O)O [Glycyl-L-Proline] (H-Gly-Pro-OH), the Toxic was “no” and the Metabolized (compound as carbon source) was “no”.

For O=P(O)(O)OCC(O)CO (racemic) [D,L-α-Glycerol- Phosphate], the Metabolized (compound as carbon source) was “no” and the Toxic [1] was “no”.

For OC[C@H]1O[C@@H](O[C@H]2[C@H](O)[C@@H](O)[C@H](O)O[C@@H]2CO)[C@H](O)[C@@H](O)[C@@H]1O [D-Cellobiose], the Metabolized (compound as carbon source) was “no”.

In the case of CC(O)CC(=O)O (stereo not drawn) [β-Hydroxy Butyric Acid], the Toxic is reported as “no” and the Metabolized (compound as carbon source) is reported as “no”.

With O=C[C@H](O)[C@@H](O)[C@@H](O)[C@H](O)CO [D-Galactose] the Toxic was “no” and the Metabolized (compound as carbon source) was “no”.

With NCC(=O)N[C@@H](CC(=O)O)C(=O)O [Glycyl-L-Aspartic Acid] (H-Gly-Asp-OH) the Metabolized (compound as carbon source) was “yes”, the Toxic [1] was “no” and the “Carbon sources that Mortierella elongata AG77 can metabolize” value was “can metabolize”.
